Patent US20160263110A1 (priority 2013, published 2016)
Values joined by “and” are separate entries in the source; they are usually repeats but may differ in a detail not shown here. Equal entries are not always repeated. “Also recorded” adds a separate entry of the source. Where two headings read alike, the source gives them in different places.

How the values were obtained:
ALS patients = conditions: list of drugs tested in ALS, Zoccolella et al. 2009; cited from earlier work
ALS mouse model = conditions: list of drugs tested in ALS, Zoccolella et al. 2009; cited from earlier work
[1] = list of drugs tested in ALS, Zoccolella et al. 2009; cited from earlier work
[2] = system: B6SJL-Tg SOD1G93A female mice; conditions: for Age of onse, Averages / Age of deal, Averages: average of 8 mice; for Age of onse, Averages: control average 101.25; for Age of deal, Averages: control average 135
[3] = system: B6SJL-Tg SOD1G93A female mice; conditions: 30 mg/kg/day; from 90 to 120 days
SOD1G93A rats = test: ALS model in SOD1G93A rats: disease onset and survival
[4] = system: B6SJL-Tg SOD1G93A female mice
[5] = safety data in non-oncology indications; type: in vivo
[6] = system: human cord blood mast cells; conditions: cited from earlier work
Non-Tg SOD1G93A mice = test: negative intervention control in Non-Tg SOD1G93A mice; conditions: 100 mg/kg/day

## CC/C(=C(\c1ccccc1)c1ccc(OCCN(C)C)cc1)c1ccccc1 [Tamoxifen]
ALS patients
  Benefits: survival benefit
ALS mouse model
  Mouse model: Overall positive
[1]
  Human Safety: Relatively safe

## Cc1ccc(NC(=O)c2ccc(CN3CCN(C)CC3)cc2)cc1Nc1nc(-c2cccnc2)cs1 [masitinib, 4-(4-methylpiperazin-1-ylmethyl)-N-[4-methyl-3-(4-pyridin-3ylthiazol-2-ylamino)phenyl]benzamide]
[2]; 30 mg/kg/day
  median survival compared with positive control group: higher
  Age of onse, Averages: 111.375
  Age of deal, Averages: 139.625
[2]; age of symptoms onset, individual mice, 100 mg/kg/day oral gavage Monday-Friday from 90 days old, 100 mg/kg/day
  Age of onse: 109 (2×) and 111 (5×) and 115
[2]; 100 mg/kg/day
  Age of onse, Averages: 111
  Age of deal, Averages: 132.125
[2]; both doses, 30 or 100 mg/kg/day
  symptoms onset versus positive control: significant delay of symptoms onset
[2]; righting reflex as surrogate for survival
  survival versus positive control: trend to improve survival
[3]
  weight loss versus Tg Ctrl: reduced weight loss during the first stage of the disease
SOD1G93A rats; 40 mg/kg oral
  survival without paralytic symptoms or weight loss (two rats of the group): 7 months
SOD1G93A rats; 40 mg/kg oral once a day Monday to Friday
  early paralysis and death (two rats of the group): died before week 6
SOD1G93A rats; 40 mg/kg oral, 5 times a week, 3 times a week from week 6, male rats from age 120 days, n=6
  survival compared to control (vehicle): prolonged the survival; also recorded: survived longer
SOD1G93A rats; 40 mg/kg oral, after week 6
  disease onset compared to vehicle: develop the disease later
[4]; 30 mg/kg/day
  hind-limb grip strength curve versus Tg Ctrl: significantly improved the grip strength curve
[4]; 100 mg/kg/day, from 90 to 120 days
  hind-limb grip strength versus Tg Ctrl: improved the grip strength during the first stage of the disease
[5]; 3 mg/kg/day versus 6 mg/kg/day
  tolerability, difference between doses: no obvious difference
[5]; dosage up to 6 mg/kg/day
  tolerability: well-tolerated
[6]
  FccRI-mediated degranulation of human cord blood mast cells: inhibition
Non-Tg SOD1G93A mice
  results in Non-Tg animals, masitinib versus water: showed similar results to one another

## Nc1nc2ccc(OC(F)(F)F)cc2s1 [riluzole, 6-(trifluoromethoxy)benzothiazol-2-amine]
ALS patients
  Benefits: Positive transient impact
